Measurements as given in ChEMBL document CHEMBL4321836, “Discovery of BAY-298 and BAY-899: Tetrahydro-1,6-naphthyridine-Based, Potent, and Selective Antagonists of the Luteinizing Hormone Receptor Which Reduce Sex Hormone Levels in Vivo” (J Med Chem, 2019).

What was measured:
Rattus norvegicus [1] = assay: Downregulation of human luteinizing hormone-induced Egr-1 mRNA expression in cetrorelix-treated iv dosed female rat after 2 hrs by Taqman probe based RT-PCR analysis; format: functional, organism-based
[2] = biological target: T1, Lutropin-choriogonadotropic hormone receptor (Homo sapiens, UniProt P22888); assay: (§1) Negative allosteric modulation of human luteinizing hormone receptor assessed as Emax for Org 43553-induced agonist activity at 0.84 nM to 17 uM preincubated for 20 mins followed by 4 times EC80 of agonist addition and measured after 60 mins by cell based TR-FRET assay relative to control
T1 sequence (P22888 whole entry): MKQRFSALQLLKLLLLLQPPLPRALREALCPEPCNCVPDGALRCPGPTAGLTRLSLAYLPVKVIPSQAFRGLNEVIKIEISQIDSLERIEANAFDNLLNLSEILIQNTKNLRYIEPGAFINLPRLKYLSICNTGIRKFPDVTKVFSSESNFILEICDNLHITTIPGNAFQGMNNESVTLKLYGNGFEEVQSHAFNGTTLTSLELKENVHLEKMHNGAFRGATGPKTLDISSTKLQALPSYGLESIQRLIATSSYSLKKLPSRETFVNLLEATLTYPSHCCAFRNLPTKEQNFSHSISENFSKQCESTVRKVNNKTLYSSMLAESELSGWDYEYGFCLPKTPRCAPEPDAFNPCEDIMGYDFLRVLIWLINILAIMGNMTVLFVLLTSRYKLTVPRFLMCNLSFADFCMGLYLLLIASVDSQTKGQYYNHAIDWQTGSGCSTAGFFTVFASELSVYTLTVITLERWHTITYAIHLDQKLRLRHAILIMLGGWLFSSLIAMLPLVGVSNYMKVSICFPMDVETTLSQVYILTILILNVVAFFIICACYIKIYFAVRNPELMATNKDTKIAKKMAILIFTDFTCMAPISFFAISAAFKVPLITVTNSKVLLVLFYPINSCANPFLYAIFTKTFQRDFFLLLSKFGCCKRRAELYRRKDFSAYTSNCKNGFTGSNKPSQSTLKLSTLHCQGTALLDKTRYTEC

Rattus norvegicus [3] = assay: Effect on folliculo-genesis in 4 day cycle of po dosed normally cycling female rat assessed as induction of cycle arrest in diestrus stage by observing vaginal smears administered once daily for 8 days; format: functional, organism-based
[4] = biological target: T1, Lutropin-choriogonadotropic hormone receptor; assay: as §1, with “for glycoprotein human luteinizing hormone-induced” for “for Org 43553-induced”, “by 16” for “by 4”; conditions: at 0.00084 to 17 µM
Rattus norvegicus [5] = assay: Downregulation of 0.1 ug human luteinizing hormone-induced testosterone expression in plasma of cetrorelix-treated male rat at 14 mg/kg, iv after 2 hrs by radioimmunoassay method (reference value: 33.4 nM); format: functional
[6] = biological target: T1, Lutropin-choriogonadotropic hormone receptor; assay: as §1, with “reduction in glycoprotein human luteinizing hormone-induced” for “Emax for Org 43553-induced”, “activity” for “activity at 0.84 nM to 17 uM”, “100” for “4”
[7] = Free plasma concentration in female rat at 4.5 to 72 mg/kg, po administered once daily for 8 days; format: ADME, organism-based; conditions: in vivo, 192 h
Rattus norvegicus [8] = assay: Downregulation of human luteinizing hormone-induced progesterone expression in plasma of cetrorelix-treated female rat at 4.5 mg/kg, iv after 2 hrs by radioimmunoassay method (reference value: 243 nM); format: functional
Rattus norvegicus [9] = assay: Downregulation of estradiol level in proestrus staged-female rat serum at 18 mg/kg, po administered once daily for 8 days and measured by radioimmunoassay method (reference value: 125 pmol/L); format: functional
[10] = biological target: T1, Lutropin-choriogonadotropic hormone receptor; assay: (§2) Negative allosteric modulation of human luteinizing hormone receptor assessed as Emax for Org 43553-induced agonist activity at 0.84 nM to 17 uM preincubated for 20 mins followed by 100 times EC80 of agonist addition and measured after 60 mins by cell based TR-FRET assay relative to control
Rattus norvegicus [11] = assay: Downregulation of estradiol level in proestrus staged-female rat serum at 72 mg/kg, po administered once daily for 8 days and measured by radioimmunoassay method (reference value: 125 pmol/L); format: functional
[12] = biological target: T1, Lutropin-choriogonadotropic hormone receptor; assay: (§3) Negative allosteric modulation of human luteinizing hormone receptor assessed as Emax for Org 43553-induced agonist activity at 0.84 nM to 17 uM preincubated for 20 mins followed by 1 times EC80 of agonist addition and measured after 60 mins by cell based TR-FRET assay relative to control
Rattus norvegicus [13] = assay: Downregulation of estradiol level in po dosed proestrus staged-female rat serum administered once daily for 8 days and measured by radioimmunoassay method; format: functional, organism-based
[14] = Plasma concentration in female rat at 4.5 to 72 mg/kg, po administered once daily for 8 days and measured on day 8; format: ADME, organism-based
Rattus norvegicus [15] = assay: Downregulation of estradiol level in proestrus staged-female rat serum at 36 mg/kg, po administered once daily for 8 days and measured by radioimmunoassay method (reference value: 125 pmol/L); format: functional
Rattus norvegicus [16] = assay: Downregulation of human luteinizing hormone-induced RUNX1 mRNA expression in cetrorelix-treated iv dosed female rat after 2 hrs by Taqman probe based RT-PCR analysis; format: functional, organism-based
[17] = biological target: T1, Lutropin-choriogonadotropic hormone receptor; assay: as §1, with “reduction in glycoprotein human luteinizing hormone-induced” for “Emax for Org 43553-induced”, “activity” for “activity at 0.84 nM to 17 uM”, “10” for “4”
[18] = biological target: T1, Lutropin-choriogonadotropic hormone receptor; assay: as §2, with “glycoprotein human luteinizing hormone-induced” for “Org 43553-induced”
Rattus norvegicus [19] = assay: Downregulation of human luteinizing hormone-induced COX-2 mRNA expression in cetrorelix-treated iv dosed female rat after 2 hrs by Taqman probe based RT-PCR analysis; format: functional, organism-based
Rattus norvegicus [20] = assay: Reversal of human luteinizing hormone-induced suppression of aromatase mRNA expression in cetrorelix-treated iv dosed female rat after 2 hrs by Taqman probe based RT-PCR analysis; format: functional, organism-based
[21] = biological target: T1, Lutropin-choriogonadotropic hormone receptor; assay: (§4) Negative allosteric modulation of human luteinizing hormone receptor assessed as reduction in Org 43553-induced agonist activity preincubated for 20 mins followed by 10 times EC80 of agonist addition and measured after 60 mins by cell based TR-FRET assay relative to control
[22] = biological target: T1, Lutropin-choriogonadotropic hormone receptor; assay: Negative allosteric modulation of human luteinizing hormone receptor assessed as reduction in Org 43553-induced agonist activity preincubated for 20 mins followed by 1 times EC80 of agonist addition and measured after 60 mins by cell based TR-FRET assay relative to control
Rattus norvegicus [23] = assay: Downregulation of human luteinizing hormone-induced progesterone expression in plasma of cetrorelix-treated female rat at 27 mg/kg, iv after 2 hrs by radioimmunoassay method (reference value: 243 nM); format: functional
[24] = biological target: T1, Lutropin-choriogonadotropic hormone receptor; assay: as §4, with “glycoprotein human luteinizing hormone-induced” for “Org 43553-induced”, “4” for “10”
Rattus norvegicus [25] = assay: Downregulation of 0.3 ug human luteinizing hormone-induced testosterone expression in plasma of cetrorelix-treated male rat at 14 mg/kg, iv after 2 hrs by radioimmunoassay method (reference value: 33.4 nM); format: functional
[26] = biological target: T1, Lutropin-choriogonadotropic hormone receptor; assay: Negative allosteric modulation of human luteinizing hormone receptor assessed as reduction in Org 43553-induced agonist activity preincubated for 20 mins followed by 16 times EC80 of agonist addition and measured after 60 mins by cell based TR-FRET assay relative to control
Rattus norvegicus [27] = assay: Downregulation of human luteinizing hormone-induced testosterone expression in plasma of cetrorelix-treated iv dosed male rat at after 2 hrs by radioimmunoassay method; format: functional, organism-based
[28] = biological target: T1, Lutropin-choriogonadotropic hormone receptor; assay: Negative allosteric modulation of human luteinizing hormone receptor assessed as reduction in Org 43553-induced agonist activity preincubated for 20 mins followed by 4 times EC80 of agonist addition and measured after 60 mins by cell based TR-FRET assay relative to control
Rattus norvegicus [29] = assay: Effect on folliculo-genesis in 4 day cycle of po dosed normally cycling female rat assessed as induction of cycle arrest in metestrus stage by observing vaginal smears administered once daily for 8 days and measured for 2 cycle-stage; format: functional, organism-based
[30] = biological target: T1, Lutropin-choriogonadotropic hormone receptor; assay: as §1, with “glycoprotein human luteinizing hormone-induced” for “Org 43553-induced”
[31] = biological target: T1, Lutropin-choriogonadotropic hormone receptor; assay: Negative allosteric modulation of human luteinizing hormone receptor assessed as Emax for Org 43553-induced agonist activity at 0.84 nM to 17 uM preincubated for 20 mins followed by 10 times EC80 of agonist addition and measured after 60 mins by cell based TR-FRET assay relative to control
Rattus norvegicus [32] = assay: Downregulation of human luteinizing hormone-induced progesterone expression in plasma of cetrorelix-treated female rat at 14 mg/kg, iv after 2 hrs by radioimmunoassay method (reference value: 243 nM); format: functional
[33] = biological target: T1, Lutropin-choriogonadotropic hormone receptor; assay: as §3, with “glycoprotein human luteinizing hormone-induced” for “Org 43553-induced”

## O=C(Nc1ccc(Oc2ccc(F)cc2)cc1)N1CCc2ncccc2[C@@H]1c1ccc(Cl)cc1
Rattus norvegicus [1]
  Activity: Dose-dependent effect
[2]
  Emax: 102%
Rattus norvegicus [3]
  Activity: Dose-dependent effect
[4]
  Emax: 109%
Rattus norvegicus [5]
  Activity: 2.5 nM
[6]
  IC50: 2.5 µM
[7]
  Cp(f): 0.024 µM
Rattus norvegicus [8]
  Activity: 76 nM
Rattus norvegicus [9]
  Activity: 70 pmol/L
[10]
  Emax: 93%
Rattus norvegicus [11]
  Activity: <39 pmol/L
[12]
  Emax: 104%
Rattus norvegicus [13]
  Activity: Dose-dependent effect
[14]
  concentration at 192 h: 4 to 39 µM
Rattus norvegicus [15]
  Activity: 48 pmol/L
Rattus norvegicus [16]
  Activity: Dose-dependent effect
[17]
  IC50: 2.2 µM
[18]
  Emax: 98%
Rattus norvegicus [19]
  Activity: Dose-dependent effect
Rattus norvegicus [20]
  Activity: Dose-dependent effect
[21]
  IC50: 1.5 µM
[22]
  IC50: 0.65 µM
Rattus norvegicus [23]
  Activity: 50 nM
[24]
  IC50: 0.2 µM
Rattus norvegicus [25]
  Activity: 12.6 nM
[26]
  IC50: 1.7 µM
Rattus norvegicus [27]
  Activity: Dose-dependent effect
[28]
  IC50: 1.2 µM
Rattus norvegicus [29]
  Activity: Dose-dependent effect
[30]
  Emax: 99%
[31]
  Emax: 102%
Rattus norvegicus [32]
  Activity: 51 nM
[33]
  Emax: 99%
